This passage reports LC retention time results from the RepoRT retention time repository.

The nature of this series: RP, Thermo Scientific Hypersil GOLD, 1.9 µm, 40 °C, 0.4 mL/min; A: water + 0.1% formic acid, pH 3; B: acetonitrile + 0.1% formic acid, pH 3; gradient (min/%B) 0/0 1/0 11/100 13/100 14/0 16/0. The settings on record: stereoisomer not certain.

Turning to `O=C(O)C=Cc1ccc(O)cc1` [4-COUMARATE], the LC retention time was 5.43 min.

Consider `NC(N)=NCCCC(=O)O` [4-GUANIDINOBUTANOATE], for which the LC retention time stood at 0.84 min.

For the molecule `N[C@H](C(=O)O)c1ccc(O)cc1` [4-HYDROXY-L-PHENYLGLYCINE], the LC retention time came to 0.67 min.

Consider `O=Cc1ccc(O)cc1` [4-HYDROXYBENZALDEHYDE], for which the LC retention time was 5.13 min.

For the molecule `O=C(O)Cc1ccc(O)cc1` [4-Hydroxyphenylacetic acid], the LC retention time is 4.88 min.

Take `O=C(O)Cc1cnc[nH]1` [4-IMIDAZOLEACETATE]: the LC retention time was found to be 0.67 min.

On to `Cc1ccc(O)c(O)c1` [4-METHYLCATECHOL], for which the LC retention time was 6.6 min.

With `Cc1ccncc1` [4-Methylpyridine (4-Picoline)], the LC retention time came to 0.87 min.

`Cc1ncc(CO)c(C(=O)O)c1O` [4-PYRIDOXATE]: the LC retention time is 1.73 min.

As for `O=C(O)c1ccnc2ccccc12` [4-QUINOLINECARBOXYLIC ACID], the LC retention time amounted to 1.29 min.

As for `CC1OC(n2cnc3c(N)ncnc32)C(O)C1O` (stereo not given) [5'-DEOXYADENOSINE], the LC retention time was 3.66 min.

As to `Cc1cc2nc[nH]c2cc1C` [5-6 DIMETHYLBENZIMIDAZOLE], the LC retention time was 5.05 min.

As to `NCC(=O)CCC(=O)O` [5-AMINOLEVULINATE], the LC retention time worked out at 0.64 min.

`NCCCCC(=O)O` [5-AMINOPENTANOATE]: the LC retention time was 0.71 min.

With `Nc1cncc(C(=O)O)c1` [5-Aminopyridine-3-carboxylic acid], the LC retention time stood at 0.74 min.

As for `NCC(O)CCC(N)C(=O)O` (stereo not given) [5-HYDROXYLYSINE], the LC retention time was found to be 0.57 min.

As to `O=c1[nH]cc(CO)c(=O)[nH]1` [5-HYDROXYMETHYLURACIL], the LC retention time came to 0.82 min.

`NC(Cc1c[nH]c2ccc(O)cc12)C(=O)O` (stereo not given) [5-HYDROXYTRYPTOPHAN]: the LC retention time stood at 1.99 min.

Regarding `Oc1ccc2[nH]ccc2c1` [5-Hydroxyindole], the LC retention time amounted to 4.72 min.

In the case of `O=C(O)c1cncc(O)c1` [5-Hydroxynicotinic acid], the LC retention time was determined as 0.83 min.

On to `Cc1cnc(=O)[nH]c1N` [5-METHYLCYTOSINE], for which the LC retention time was 0.7 min.

With `O=C1CCCCO1` [5-VALEROLACTONE], the LC retention time stood at 6.54 min.

For `O=C(O)c1ccc(CO)o1` [5-hydroxymethyl-2-furancarboxylic acid], the LC retention time turned out to be 3.49 min.

As to `CC(CCC(=O)O)C1CCC2C3CCC4CC(=O)CCC4(C)C3CCC12C` (stereo not given) [5b-cholanic acid-3-ONE], the LC retention time was determined as 10.7 min.

Regarding `CC(CCC(=O)O)C1CCC2C3C(O)C(O)C4CC(O)CCC4(C)C3CCC12C` (stereo not given) [5b-cholanic acid-3a-6a-7a-TRIOL], the LC retention time turned out to be 7.96 min.

With `CC(CCC(=O)O)C1CCC2C3CCC4CC(O)CCC4(C)C3CC(=O)C12C` (stereo not given) [5b-cholanic acid-3a-OL-12-ONE], the LC retention time amounted to 8.76 min.

As for `Nc1ccc(C(=O)O)cn1` [6-Aminopyridine-3-carboxylic acid], the LC retention time is 0.87 min.

As to `NCCc1cc(O)c(O)cc1O` [6-HYDROXYDOPAMINE], the LC retention time is 0.77 min.

In the case of `O=C(O)c1ccc(=O)[nH]c1` [6-HYDROXYNICOTINATE], the LC retention time was 1.5 min.

Consider `CC(O)C(O)C1=Nc2c(nc(N)[nH]c2=O)NC1` [7-8-Dihydro-L-biopterin], for which the LC retention time stood at 0.82 min.

For `Cn1c[n+](C2OC(CO)C(O)C2O)c2nc(N)[nH]c(=O)c21` (stereo not given) [7-Methylguanosine], the LC retention time came out at 0.83 min.

In the case of `Cn1cnc2[nH]c(=O)[nH]c(=O)c21` [7-Methylxanthine], the LC retention time came out at 2.15 min.

Regarding `Cn1cnc2nc(N)[nH]c(=O)c21` [7-methylguanine], the LC retention time is 0.82 min.

For the molecule `O=C(O)CCCCCCCCCO` [10-HYDROXYDECANOATE], the LC retention time came to 6.79 min.

For the molecule `CC(=O)C1(O)CCC2C3CC=C4CC(O)CCC4(C)C3CCC21C` (stereo not given) [17a-Hydroxypregnenolone], the LC retention time was found to be 0.67 min.
